Assay results: article PMC11994961, “In Vivo pharmacokinetic interactions of ribociclib with rivaroxaban and apixaban in rats: implications for increased drug exposure and dose adjustments” (Frontiers in Pharmacology, 2025)
Entries after “also recorded” stand apart in the source; their conditions may differ. Read-outs that look alike come from different tables or passages of the source.

Legend:
CYP3A4 = tested on: CYP3A4; parameters: method as in Sorf et al., 2018; conditions: in vitro; ref Sorf et al., 2018; read-out: half-maximal inhibitory concentration (IC50) against CYP3A4; cited from earlier work
[1] = Stability of ribociclib QC samples in rat plasma; assay type: in vitro ADME; conditions: room temperature, autosampler 15°C, −80°C, three freeze-thaw cycles
Procedure: The method was validated per the guidelines of the Food and Drug Administration (US-FDA, 2022) and Chinese Pharmacopoeia (2020). Selectivity was determined by analyzing blank plasma samples from six different batches of rats and plasma samples from six different batches of rats after administration of ribociclib. There should be no interference, with retention times such that the blank plasma peak area is less than 5% of the internal standard (IS) and less than 20% of the lower limit of quantification (LLOQ). The calibration curves were evaluated using 10–4,000 ng/mL of ribociclib. Linearity was assessed by plotting the peak area ratios of the analyte to the IS against nominal concentrations, using weighted (1/x^2) least-squares linear regression. Accuracy and precision were determined for all concentrations derived from the calibration curves, ensuring that deviations were within 15% of the nominal concentration, except for the LLOQ, where the deviation should not exceed 20%. Precision and accuracy were assessed by analyzing plasma samples at low, medium, high, and LLOQ concentration levels over three consecutive days. The final precision and accuracy were determined by calculating the relative standard deviation (RSD) and relative error (RE) of the six samples. RSD and RE for QC concentrations were required to be within ±15%, and for the LLOQ, within ±20%. […]

[2] = Pharmacokinetic study of ribociclib in rats, alone and after rivaroxaban or apixaban (UPLC-MS/MS plasma levels); assay type: in vivo, Sprague-Dawley rats; conditions: for Cmax / AUC(0-inf) / AUC(0-t) / Tmax / half-life / CL/F / MRT inf / MRT last / Vd/F: Sprague-Dawley, rat, plasma, 60 mg/kg; for CL/F: read-out: CLz/F (converted); for MRT inf: read-out: MRT0- ∞; for MRT last: read-out: MRT0-t; for Vd/F: read-out: Vz/F
Procedure: Experimental animals were randomly divided into nine groups (n = 6, Table 1). Ribociclib was suspended in methylcellulose (MC), rivaroxaban was prepared in hydroxypropyl methylcellulose (HPMC), and apixaban was suspended in 5% DMSO in water. To achieve steady-state blood concentrations, a drug typically requires five to seven half-lives. Based on this principle, ribociclib was administered orally for eight consecutive days, while rivaroxaban and apixaban were administered orally for five consecutive days to ensure steady-state concentrations were reached before further analysis. Approximately 0.1 mL of blood was collected into heparinized tubes via the orbitalat specified time points before and after the final drug administration. […] Blood samples were centrifuged at 3,500 rpm for 10 min, and the supernatant was collected and stored at −80°C until processing for UPLC-MS/MS. Apixaban and rivaroxaban concentrations in plasma samples were determined using our previously established UPLC-MS/MS method ([Wang et al., 2023]). Ribociclib concentrations were quantified using an LC-30A UPLC system (Shimadzu, Kyoto, Japan) coupled with a Sciex Triple Quad 5500 tandem quadrupole mass spectrometer (AB Sciex, Framingham, MA, United States) equipped with an electrospray ionization interface. Chromatographic separation was performed using a Welch Boltimate column (2.1 mm × 100 mm, 2.7 μm) maintained at 40°C. The mobile phase was composed of water containing 0.1% formic acid (phase A) and acetonitrile (phase B). The flow rate was held constant at 0.3 mL/min. […] The injection volume was 1 μL. The mass spectrometer operated in positive ion mode and multiple reaction monitoring (MRM) mode for detection and quantification. The monitored transitions of precursors to product ions were as follows: 441.3→332.1 for ribociclib-d6 and 435.3.→322.1 for ribociclib (Figure 1). The mass spectrometer conditions, including delustering potential (DP) and collision energy (CE) of the compounds, are shown in Table 2. Other parameters of the mass spectrometer were as follows: ion source gas 160.0 psi; ion source gas 2,50.0 psi; curtain gas, 25.0 psi. The source temperature was 500°C and the ion spray voltage was 5,500 V. A 50 µL plasma sample was mixed with 5 µL of the IS working solution, followed by the addition of 150 µL of acetonitrile. The mixture was vortexed for 2 min and then centrifuged at 12,000 rpm for 10 min. Next, 70 µL of the supernatant was collected and mixed with 70 µL of 50% (v/v) of acetonitrile in water. The mixture was vortexed for 1 min, and then 1 µL was injected into the UPLC-MS/MS system for analysis. […] The area under the concentration–time curve (AUC), maximum plasma concentration (Cmax), time to maximum plasma concentration (Tmax), the time required to eliminate half of the plasma drug concentration (t1/2), clearance of drug plasma volume per unit time (CLz/F), apparent volume distribution (Vz/F), mean residence time (MRT) and the absorption rate constant (Ka) are all expressed as mean ± standard deviation (SD). SPSS 25.0 statistical software (SPSS Inc., Chicago, IL, United States) was applied to statistically analyze the mainpharmacokinetic parameters. Shapiro-Wilk test was used to assess whether the data were normally distributed, t test was used for parameters conforming to the normal distribution, and Mann-Whitney U test was used for parameters not conforming to the normal distribution. Statistical comparisons were conducted using a analysis of variance, t-test or nonparametric rank-sum test depending on the data type.

CYP2J2 = tested on: CYP2J2; parameters: method as in Mueck et al., 2013; conditions: ref Mueck et al., 2013; cited from earlier work
[3] = po, rats, RIBO 60 mg/kg after API 0.5 mg/kg for 5 days
[4] = po, rats, RIBO 60 mg/kg after RIVA 2 mg/kg for 5 days
[5] = po, rats, oral RIBO 60 mg/kg alone

SMILES: CN(C)C(=O)c1cc2cnc(Nc3ccc(N4CCNCC4)cn3)nc2n1C1CCCC1 [RIBO, ribociclib]
- stability of QC samples [1]: excellent stability
- Cmax ([2]; oral, rats administered 60 mg/kg): ~1500 ng/mL
- AUC(0-inf) [2, 3]: 25200 ng·h/mL
- AUC(0-t) [2, 3]: 24500 ng·h/mL
- Cmax [2, 3]: 2080 ± 400 ng/mL
- Tmax [2, 3]: 4.33 ± 1.37 h
- half-life [2, 3]: 8.25 ± 2.87 h
- CL/F [2, 3]: 40.2 mL/min/kg
- MRT inf [2, 3]: 11 ± 2.83 h
- MRT last [2, 3]: 9.71 ± 1.15 h
- Vd/F [2, 3]: 28.3 ± 8.33 L/kg
- AUC(0-inf) [2, 4]: 21500 ng·h/mL
- AUC(0-t) [2, 4]: 21400 ng·h/mL
- Cmax [2, 4]: 1600 ng/mL
- Tmax [2, 4]: 4.33 ± 0.52 h
- half-life [2, 4]: 6.13 ± 1.41 h
- CL/F [2, 4]: 47.2 mL/min/kg
- MRT inf [2, 4]: 10.1 ± 2.16 h
- MRT last [2, 4]: 9.77 ± 1.74 h
- Vd/F [2, 4]: 24.7 ± 4.85 L/kg
- AUC(0-inf) [2, 5]: 20800 ng·h/mL
- AUC(0-t) [2, 5]: 20300 ng·h/mL
- Cmax [2, 5]: 1620 ng/mL
- Tmax [2, 5]: 2.4 ± 0.89 h
- half-life [2, 5]: 7.87 ± 4.17 h
- CL/F [2, 5]: 49.3 mL/min/kg
- MRT inf [2, 5]: 11.8 ± 4.35 h
- MRT last [2, 5]: 10.1 ± 1.79 h
- Vd/F [2, 5]: 35.5 ± 26.3 L/kg
- changes in the pharmacokinetic parameters ([2]; rats, RIBO 60 mg/kg after multiple doses of apixaban vs alone): no significant changes; also recorded: did not alter
- changes in the pharmacokinetic parameters ([2]; rats, RIBO 60 mg/kg after multiple doses of rivaroxaban vs alone): no significant changes; also recorded: did not alter
- slight increase in Cmax ([2]; rats, RIBO 60 mg/kg, apixaban group vs alone): not statistically significant

SMILES: O=C(NC[C@H]1CN(c2ccc(N3CCOCC3=O)cc2)C(=O)O1)c1ccc(Cl)s1 [RIVA, rivaroxaban]
- share of total elimination by CYP2J2 (CYP2J2): approximately 14%
